Results as given in patent publication US8501781B2 (priority 2009, dated 2013).
Marks after values point to notes of the source that are not given here.

Assay: logP by HPLC (EEC Directive 79/831 Annex V.A8)
Format: physicochemical
[1] = [b] LC-MS, acidic range, pH 2.7, 0.1% aqueous formic acid and acetonitrile
[2] = [c] LC-MS, neutral range, pH 7.8, 0.001 molar aqueous ammonium bicarbonate and acetonitrile

Compound	logP [1]	logP [2]
Cc1cc(C)cc(CC(=O)N2CCC(c3nc(C(=O)OC4CCCCC4)cs3)CC2)c1 [Example 65]	4.32	4.34
Cc1ccc(CC(=O)N2CCC(c3nc(C(=O)OC4CCCCC4)cs3)CC2)c(C)c1 [Example 66]	4.3	4.33
O=C(OC1CCCCC1)c1csc(C2CCN(C(=S)Nc3cc(F)ccc3F)CC2)n1 [Example 67]	3.86^[b]	
O=C(OC1CCCc2ccccc21)c1csc(C2(F)CCN(C(=O)Cn3nc(C(F)F)cc3C(F)F)CC2)n1 (stereo not drawn) [Example 68]	4.12^[b]	
O=C(OC1CCCCC1)c1csc(C2(F)CCN(C(=O)Cn3nc(C(F)F)cc3C(F)F)CC2)n1 [Example 69]	3.91^[b]	
COc1ccc(C)cc1NC(=O)N1CCC(c2nc(C(=O)OC3CCCCC3)cs2)CC1 [Example 71]	4.18^[b]	
Cc1ccc(Cl)cc1NC(=O)N1CCC(c2nc(C(=O)OC3CCCCC3)cs2)CC1 [Example 72]	4.10^[b]	
Cc1noc(C)c1NC(=S)N1CCC(c2nc(C(=O)OC3CCCCC3)cs2)CC1 [Example 73]	3.18^[b]	
Cc1ccc(F)cc1NC(=O)N1CCC(c2nc(C(=O)OC3CCCCC3)cs2)CC1 [Example 74]	3.74^[b]	
COc1ccc(Cl)cc1NC(=O)N1CCC(c2nc(C(=O)OC3CCCCC3)cs2)CC1 [Example 75]	4.35^[b]	
Cc1noc(C)c1NC(=O)N1CCC(c2nc(C(=O)OC3CCCCC3)cs2)CC1 [Example 76]	2.66^[b]	
COc1ccc(OC)c(NC(=O)N2CCC(c3nc(C(=O)OC4CCCc5ccccc54)cs3)CC2)c1 (stereo not drawn) [Example 77]	4.05^[b]	
Cc1ccc(C)c(NC(=O)N2CCC(c3nc(C(=O)OC4CCCc5ccccc54)cs3)CC2)c1 (stereo not drawn) [Example 78]	4.09^[b]	
Cc1ccc(F)cc1NC(=O)N1CCC(c2nc(C(=O)OC3CCCc4ccccc43)cs2)CC1 (stereo not drawn) [Example 79]	4.00^[b]	
Cc1ccc(F)c(NC(=O)N2CCC(c3nc(C(=O)OC4CCCc5ccccc54)cs3)CC2)c1 (stereo not drawn) [Example 80]	4.08^[b]	
Cc1ccc(C)c(NC(=S)N2CCC(c3nc(C(=O)OC4CCCc5ccccc54)cs3)CC2)c1 (stereo not drawn) [Example 81]	4.39^[b]	
COc1ccc(C)cc1NC(=O)N1CCC(c2nc(C(=O)OC3CCCc4ccccc43)cs2)CC1 (stereo not drawn) [Example 82]	4.33^[b]	
O=C(OC1CCCCC1)c1csc(C2CCN(C(=O)CC3CCCC3)CC2)n1 [Example 83]	4.15	4.12
O=C(OCc1ccccc1Br)c1csc(C2CCN(C(=O)Nc3cc(F)ccc3F)CC2)n1 [Example 84]	3.79^[c]; 3.79^[b]	3.79^[c]; 3.79^[b]
Cc1ccc(Cl)cc1NC(=O)N1CCC(c2nc(C(=O)OCc3ccccc3Br)cs2)CC1 [Example 85]	4.04	4.06
Cc1cc(CC(=O)N2CCC(c3nc(C(=O)OC4CCCCC4)cs3)CC2)n(C)n1 [Example 86]	2.6	2.67
O=C(OCc1ccccc1Br)c1csc(C2CCN(C(=O)Cc3cc(Cl)ccc3Cl)CC2)n1 [Example 87]	4.41	4.44
Cc1ccc(C)c(NC(=S)N2CCC(c3nc(C(=O)OCc4ccccc4Br)cs3)CC2)c1 [Example 88]	3.68	3.71
Cc1cc(CC(=O)N2CCC(c3nc(C(=O)OC4CCCCC4)cs3)CC2)nn1C [Example 89]	2.66	2.68
Cc1ccc(F)cc1NC(=O)N1CCC(c2nc(C(=O)OCc3ccccc3Br)cs2)CC1 [Example 90]	3.77	3.75

Compound	logP [1]	logP [2]
Cc1ccc(C)c(NC(=O)N2CCC(c3nc(C(=O)OCc4ccccc4Br)cs3)CC2)c1 [Example 91]	3.86	3.84
Cc1ccc(F)c(NC(=O)N2CCC(c3nc(C(=O)OCc4ccccc4Br)cs3)CC2)c1 [Example 92]	3.85	3.83
COc1ccc(OC)c(NC(=O)N2CCC(c3nc(C(=O)OC4CCCCC4)cs3)CC2)c1 [Example 93]	3.76^[b]	
Cc1ccc([N+](=O)[O-])cc1NC(=O)N1CCC(c2nc(C(=O)OC3CCCCC3)cs2)CC1 [Example 94]	3.62^[b]	
O=C(OC1CCCc2ccccc21)c1csc(C2CCN(C(=O)Nc3cc(Cl)ccc3Cl)CC2)n1 (stereo not drawn) [Example 95]	4.92^[b]	
Cc1ccc(C)c(CC(=O)N2CCC(c3nc(C(=O)OC4CCCc5ccccc54)cs3)CC2)c1 (stereo not drawn) [Example 96]	4.54^[b]	
COc1ccc(Cl)cc1NC(=O)N1CCC(c2nc(C(=O)OC3CCCc4ccccc43)cs2)CC1 (stereo not drawn) [Example 97]	4.64^[b]	
Cc1noc(C)c1NC(=O)N1CCC(c2nc(C(=O)OC3CCCc4ccccc43)cs2)CC1 (stereo not drawn) [Example 98]	2.97^[b]	
O=C(OC1CCCc2ccccc21)c1csc(C2CCN(C(=O)Cc3cc(Cl)ccc3Cl)CC2)n1 (stereo not drawn) [Example 99]	4.73^[b]	
Cc1ccc(Cl)c(NC(=O)N2CCC(c3nc(C(=O)OC4CCCc5ccccc54)cs3)CC2)c1 (stereo not drawn) [Example 100]	4.61^[b]	
O=C(OCc1ccccc1Br)c1csc(C2CCN(C(=O)Cc3cc(Br)ccc3Br)CC2)n1 [Example 101]	4.68	4.64
Cc1ccc(C)c(CC(=O)N2CCC(c3nc(C(=O)OCc4ccccc4Br)cs3)CC2)c1 [Example 102]	4.23	4.27
COc1ccc(OC)c(NC(=O)N2CCC(c3nc(C(=O)OCc4ccccc4Br)cs3)CC2)c1 [Example 103]	3.83	3.81
COc1ccc(C)cc1NC(=O)N1CCC(c2nc(C(=O)OCc3ccccc3Br)cs2)CC1 [Example 104]	4.08	4.12
COc1ccc(Cl)cc1NC(=O)N1CCC(c2nc(C(=O)OCc3ccccc3Br)cs2)CC1 [Example 105]	4.35	4.36
O=C(OCc1ccccc1Br)c1csc(C2CCN(C(=O)Nc3cc(C(F)(F)F)ccc3Cl)CC2)n1 [Example 106]	4.7	4.75
Cc1ccc(Cl)c(NC(=O)N2CCC(c3nc(C(=O)OCc4ccccc4Br)cs3)CC2)c1 [Example 107]	4.28	4.33
O=C(OCc1ccccc1Br)c1csc(C2CCN(C(=O)Nc3cc(Cl)ccc3Cl)CC2)n1 [Example 108]	4.56	4.61
Cn1nc(C(F)(F)F)cc1OC(=O)N1CCC(c2nc(C(=O)OC3CCCCC3)cs2)CC1 [Example 109]	4.36	4.37
Cc1ccc([N+](=O)[O-])cc1NC(=O)N1CCC(c2nc(C(=O)OCc3ccccc3Br)cs2)CC1 [Example 110]	3.69	3.70
O=C(OCc1ccccc1Br)c1csc(C2CCN(C(=O)Nc3cc(C(F)(F)F)ccc3F)CC2)n1 [Example 111]	4.29^[c]; 4.29^[b]	4.29^[c]; 4.29^[b]
Cc1ccc(Cl)cc1NC(=S)N1CCC(c2nc(C(=O)OCc3ccccc3Br)cs2)CC1 [Example 112]	4.3	4.27
O=C(OCc1ccccc1Br)c1csc(C2CCN(C(=S)Nc3cc(Cl)ccc3Cl)CC2)n1 [Example 113]	4.4	4.39
O=C(OCc1ccccc1Br)c1csc(C2CCN(C(=S)Nc3cc(F)ccc3Br)CC2)n1 [Example 114]	4.04	4.02
